The values that follow come from patent US9771316B2, “Phenoxyalkylamine compound” (OSAKA UNIVERSITY, priority 2013, dated 2017).

Counter-ions that a name gives are not always drawn.

The target in assay [1] is T1, human LAT-1 (Homo sapiens (Human), UniProt Q01650). Kind of assay: Inhibition of [14C]L-leucine uptake into human LAT-1 stably expressing HEK293 cell line (uptake buffer, 1 min). The assay is classed as cell-based. The settings on record: HEK293 human LAT-1 stably expressing cells; Na+-free HBSS pH7.4; [14C]L-leucine or alanine 1 μM, uptake 1 min; read-out: LAT-1 inhibitory activity/IC50. The text has this:
(§1) 1) LAT-1 Inhibitory Activity and LAT-2 Inhibitory Activity Inhibitory Effect on Uptake of Amino Acid into Human LAT-1 Stably Expressing Cell Line and LAT-2 Stably Expressing Cell Line
(§2) Expression vector each expressing a gene was inserted using Lipofectamine 2000 (Invitrogen) to cultured cell line HEK293 cell derived from human fetus renal cell. The resistant strains were selected using G418, and among them, the strains showing human LAT-1- or LAT-2-specific uptake of amino acid were established as stably expressing cell lines, respectively.
(§3) The above-mentioned stably expressing cells were plated on a 24-well collagen plate at 1.2×10^5 cells/well, and, after 48 hr, the cells were washed (×3) with uptake buffer ([…] Hank's balanced salt solution (HBSS) pH7.4) kept at 37° C. Each test compound (0.1, 1, 3, 10, 30, 100, 300 and 1000 μM) was added thereto, and the mixture was kept at 37° C. for 3 min. [^14C]L-leucine or alanine (1 μM) was added thereto, and [^14C]L-leucine or alanine (1 μM) was uptaken for 1 min. The mixture was washed with ice-cold uptake buffer (×3). Then, the cells were dissolved in 0.1M NaOH aqueous solution (500 μL), and the protein concentration was measured using the 20 μL of the solution. The uptaken radioactivity was measured using the remaining solution. The measured results were corrected with the protein concentration. The results were evaluated as inhibitory capacity 50%, i.e., IC50, which corresponds to the concentration inhibiting 50% of the cellular uptake of amino acid.

The target in the next assay is human LAT-2 (Homo sapiens (Human), UniProt Q9UHI5). Kind of assay: Inhibition of [14C] amino acid uptake into human LAT-2 stably expressing HEK293 cell line (uptake buffer, 1 min). The settings on record: HEK293 human LAT-2 stably expressing cells; Na+-free HBSS pH7.4; [14C]L-leucine or alanine 1 μM, uptake 1 min; read-out: LAT-2 inhibitory activity/IC50. Format: cell-based.
human LAT-2, sequence (Q9UHI5 whole entry): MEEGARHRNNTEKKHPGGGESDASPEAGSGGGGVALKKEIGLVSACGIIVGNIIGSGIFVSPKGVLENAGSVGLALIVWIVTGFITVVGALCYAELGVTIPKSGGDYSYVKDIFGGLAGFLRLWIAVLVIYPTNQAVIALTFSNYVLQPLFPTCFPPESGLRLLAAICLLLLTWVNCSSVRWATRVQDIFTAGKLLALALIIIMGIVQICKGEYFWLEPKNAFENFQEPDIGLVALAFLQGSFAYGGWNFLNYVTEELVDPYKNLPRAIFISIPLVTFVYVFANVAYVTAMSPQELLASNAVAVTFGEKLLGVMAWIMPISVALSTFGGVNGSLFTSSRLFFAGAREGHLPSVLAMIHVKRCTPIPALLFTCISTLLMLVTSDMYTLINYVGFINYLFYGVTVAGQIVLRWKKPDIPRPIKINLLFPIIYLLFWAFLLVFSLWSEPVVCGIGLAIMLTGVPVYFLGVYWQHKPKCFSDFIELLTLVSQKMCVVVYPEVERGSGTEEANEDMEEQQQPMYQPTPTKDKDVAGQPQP
human LAT-2, sequence (P08195 102-630 partner): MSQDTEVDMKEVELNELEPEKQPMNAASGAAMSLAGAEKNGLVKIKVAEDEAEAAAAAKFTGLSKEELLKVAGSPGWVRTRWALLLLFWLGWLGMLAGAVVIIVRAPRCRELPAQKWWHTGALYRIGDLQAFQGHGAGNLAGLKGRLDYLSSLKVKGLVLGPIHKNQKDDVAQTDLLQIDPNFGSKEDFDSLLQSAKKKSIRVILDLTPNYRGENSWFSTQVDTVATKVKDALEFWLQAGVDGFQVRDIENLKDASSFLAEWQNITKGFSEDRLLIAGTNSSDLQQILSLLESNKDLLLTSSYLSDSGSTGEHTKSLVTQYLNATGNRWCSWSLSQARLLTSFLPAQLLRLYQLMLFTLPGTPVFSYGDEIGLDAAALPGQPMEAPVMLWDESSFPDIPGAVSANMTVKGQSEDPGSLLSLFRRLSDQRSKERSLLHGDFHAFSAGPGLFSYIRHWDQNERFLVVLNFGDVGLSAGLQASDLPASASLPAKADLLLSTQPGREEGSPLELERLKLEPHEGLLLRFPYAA
Description: as §1, §2, §3

The subject of assay [2] is subcutaneous tumor derived from human pancreatic cancer cell line MIAPaCa-2. Kind of assay: Enlargement inhibitory effect on subcutaneous tumor derived from MIAPaCa-2 in nude mice. Format: in vivo, nude mice (BALB/cAJc1-nu). The settings on record: 1 mg/kg orally once a day for 7 days; female nude mice; tumor volume after 15 to 21 days vs control group. The procedure:
Experimental Example 2 Biological Activity Evaluation Test Enlargement Inhibitory Effect on Subcutaneous Tumor Derived from Human Pancreatic Cancer Cell Line MIAPaCa-2 in Nude Mice
Tumor tissue (0.1 g) derived from MIAPaCa-2 cell was subcutaneously transplanted into female nude mice (6-week old, BALB/cAJc1-nu), which the tumor tissue was formed in different nude mice in advance. 5% MC suspension was prepared from saline and each test compound (1 mg/kg), and it was orally-administered once a day for 7 days from 2 days after transplant. The time-dependent change of the tumor volume was measured by measuring (major axis×minor axis×minor axis)/2 of the tumor volume (weight) according to the method in Sawa, Jun Wu, Takaaki Akaike, and Hiroshi Maeda (2000) Cancer research 60, 666-671.
The tumor volume after 15 to 21 days administration of compound administration group was compared with those of control group, and the tumor growth inhibitory ratio was calculated. The anti-tumor action was evaluated as tumor growth inhibitory ratio.

Another assay deals with MIAPaCa-2 cells. Kind of assay: Growth inhibitory effect on human pancreatic cancer cell line MIAPaCa-2 (Trypan-Blue method). Format: cell-based. The settings on record: MIA PaCa-2, 0.2% DMSO, counted every 24 hr for 5 days. The procedure:
2) Growth Inhibitory Effect on Human Pancreatic Cancer Cell Line MIAPaCa-2
MIAPaCa-2 cells were plated on a 12-well plate at 2000 cells/well, and cultured for 48 hr without addition of test compound. 48 hr after the beginning of the culture, each test compound (0.03, 0.1, 0.3, 1, 3, 6, 10, 30, 100 μM) was added thereto in the presence of 0.2% DMSO. The cells were counted every 24 hr for 5 days, and the inhibitory effect on the MIAPaCa-2 cell growth was observed by Trypan-Blue method. The results were evaluated as inhibitory capacity 50%, i.e., IC50, which corresponds to the concentration inhibiting 50% of the cell growth inhibitory activity.

The target in assay [3] is T1, human LAT-1. Kind of assay: Inhibition of [14C]L-leucine uptake into human LAT-1 stably expressing cells in culture solution (MEM medium, 120 min). The assay is classed as cell-based. The settings on record: MEM medium containing non-essential amino acid, [14C]L-leucine uptake 120 min, read-out: LAT-1 inhibitory activity/IC50.
Description: The above-mentioned human LAT-1 stably expressing cells were plated on a 24-well collagen plate at 1.2×10^5 cells/well, and, after 48 hr, the cells were washed (×3) with new culture solution (MEM medium (containing non-essential amino acid)) kept at 37° C. Each test compound (0.1, 1, 3, 10 and 30 μM) was added thereto, and the mixture was kept at 37° C. for 3 min. [^14C]L-leucine was added thereto, and [^14C]L-leucine was uptaken in the culture solution for 120 min. The mixture was washed (×3) with ice-cold buffer (Na^2+-free Hank's balanced salt solution (HBSS) pH7.4). Then, the cells were dissolved in 0.1M NaOH aqueous solution (500 μL), and the protein concentration was measured using the 20 μL of the solution. The uptaken radioactivity was measured using the remaining solution. The measured results were corrected with the protein concentration. The results were evaluated as inhibitory capacity 50%, i.e., IC50, which corresponds to the concentration inhibiting 50% of the cellular uptake of amino acid.

T1 sequence (Q01650 whole entry): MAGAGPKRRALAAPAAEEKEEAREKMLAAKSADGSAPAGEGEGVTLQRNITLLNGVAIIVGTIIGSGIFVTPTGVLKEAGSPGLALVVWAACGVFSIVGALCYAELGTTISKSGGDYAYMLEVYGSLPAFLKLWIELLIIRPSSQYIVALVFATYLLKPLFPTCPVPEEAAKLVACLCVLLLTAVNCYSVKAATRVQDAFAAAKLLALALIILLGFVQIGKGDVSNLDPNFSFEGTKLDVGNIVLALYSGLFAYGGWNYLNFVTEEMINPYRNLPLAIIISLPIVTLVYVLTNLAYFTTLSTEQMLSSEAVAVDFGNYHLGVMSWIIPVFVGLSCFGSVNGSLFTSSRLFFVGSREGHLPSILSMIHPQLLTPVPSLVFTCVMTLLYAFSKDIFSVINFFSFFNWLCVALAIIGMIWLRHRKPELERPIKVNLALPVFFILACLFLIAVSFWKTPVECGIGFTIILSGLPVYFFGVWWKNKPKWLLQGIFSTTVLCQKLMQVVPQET
T1 sequence (P08195 102-630 partner): as the sequence (P08195 102-630 partner) above

Take `NCCCCC(Oc1ccc(C(F)(F)F)cc1)c1ccccc1` (stereo not drawn) [Example 1, 5-phenyl-5-[4-(trifluoromethyl)phenoxy]pentan-1-amine]: the values for the IC50 on human LAT-1 [1] and on human LAT-2 were 57.5 µM and 146 µM, respectively.

Regarding `NCCCCC(Oc1ccc(C(F)(F)F)cc1)c1ccccc1.O=C(O)/C=C/C(=O)O` (stereo not drawn) [Example 2, 5-phenyl-5-[4-(trifluoromethyl)phenoxy]pentan-1-amine fumarate], the “tumor growth inhibitory ratio” value in assay [2] came to 80.5%.

For `NCCCCCC(Oc1ccc(C(F)(F)F)cc1)c1ccccc1` (stereo not drawn) [Example 6, 6-phenyl-6-[4-(trifluoromethyl)phenoxy]hexan-1-amine], the IC50 on human LAT-1 [1] worked out at 89.1 µM; on human LAT-2 it was 128 µM.

In the case of `NCCCCC(Oc1ccc(C(F)(F)F)cc1)c1cccc(F)c1` (stereo not drawn) [Example 12], the IC50 at human LAT-1 [1] was 63 µM; at human LAT-2, 100 µM.

For `CCC(C)c1ccc(OC(CCCCN)c2ccccc2)cc1` (stereo not drawn) [Example 26], the IC50 turned out to be 57 µM on human LAT-1 [1] and 253 µM at human LAT-2.

For `NCCCCC(Oc1ccc(C(F)(F)F)c(F)c1)c1ccccc1` (stereo not drawn) [Example 29], the IC50 came to 76 µM on human LAT-1 [1] and 218 µM on human LAT-2.

As to `NCCCCC(Oc1ccc(OC(F)(F)F)cc1)c1ccccc1` (stereo not drawn) [Example 44], the IC50 is 39.4 µM on human LAT-1 [1] and 169 µM on human LAT-2.

Regarding `NCCCCC(Oc1ccc(C(F)(F)F)cc1)c1cccs1` (stereo not drawn) [Example 48, 5-(thiophen-2-yl)-5-[4-(trifluoromethyl)phenoxy]pentan-1-amine], the IC50 was 56.6 µM on human LAT-1 [1] and 357 µM at human LAT-2.

In the case of `NCCCCC(Oc1ccc(OC(F)(F)F)cc1)c1cccs1` (stereo not drawn) [Example 50], the IC50 at human LAT-1 [1] is 123 µM; on human LAT-2, 313 µM.

Regarding `CCC(C)c1ccc(OC(CCCCN)c2cccs2)cc1` (stereo not drawn) [Example 51], the IC50 on human LAT-1 [1] and on human LAT-2 was 261 µM in each case.

In the case of `NCCCCC(Oc1ccc(OC(F)(F)F)c(F)c1)c1cccs1` (stereo not drawn) [Example 53], the IC50 at human LAT-1 [1] was found to be 146 µM; at human LAT-2, 258 µM.

As for `NCCCCC(Oc1ccc(C(F)(F)F)c(F)c1)c1cccs1` (stereo not drawn) [Example 54], the IC50 was determined as 177 µM at human LAT-1 [1] and 300 µM on human LAT-2.

Take `NCCCC[C@@H](Oc1ccc(C(F)(F)F)cc1)c1ccccc1` [Example 66, (R)-5-phenyl-5-[4-(trifluoromethyl)phenoxy]pentan-1-amine fumarate]: the IC50 at human LAT-1 [1] is 62.8 µM; with MIAPaCa-2 cells, 0.17 µM; on human LAT-2, 194 µM.

With `NCCCC[C@H](Oc1ccc(C(F)(F)F)cc1)c1ccccc1` [Example 67, (S)-5-phenyl-5-[4-(trifluoromethyl)phenoxy]pentan-1-amine fumarate], the values for the IC50 at human LAT-1 [1], in the assay with MIAPaCa-2 cells and on human LAT-2 were 96.2 µM, 4.16 µM and 207 µM, respectively.

Consider `NCCCC[C@@H](Oc1ccc(C(F)(F)F)c(F)c1)c1ccccc1.O=C(O)/C=C/C(=O)O` [Example 68, (R)-5-[3-fluoro-4-(trifluoromethyl)phenoxy]-5-phenylpentan-1-amine fumarate], for which the figures for the IC50 at human LAT-1 [1], in the assay with MIAPaCa-2 cells and on human LAT-2 were 36.4 µM, 0.43 µM and 156 µM, respectively. Also, the “tumor growth inhibitory ratio” value in assay [2] is 84.4%.

For the compound `NCCCC[C@H](Oc1ccc(C(F)(F)F)c(F)c1)c1ccccc1.O=C(O)/C=C/C(=O)O` [Example 69, (S)-5-[3-fluoro-4-(trifluoromethyl)phenoxy]-5-phenylpentan-1-amine fumarate], the IC50 worked out at 69 µM at human LAT-1 [1], 0.83 µM in the assay on MIAPaCa-2 cells and 53 µM at human LAT-2. For the same compound, the “tumor growth inhibitory ratio” value in assay [2] is 85.5%.

For `NCCCC[C@@H](Oc1ccc(OC(F)(F)F)cc1)c1ccccc1.O=C(O)/C=C/C(=O)O` [Example 70, (R)-5-phenyl-5-[4-(trifluoromethoxy)phenoxy]pentan-1-amine fumarate], the IC50 at human LAT-1 [1] is 36.6 µM; in the assay with MIAPaCa-2 cells, 0.11 µM; at human LAT-2 it was 131 µM; on human LAT-1 [3] it was 10.4 µM. Also, the “tumor growth inhibitory ratio” value in assay [2] was found to be 90.2%.

On to `NCCCC[C@H](Oc1ccc(OC(F)(F)F)cc1)c1ccccc1.O=C(O)/C=C/C(=O)O` [Example 71, (S)-5-phenyl-5-[4-(trifluoromethoxy)phenoxy]pentan-1-amine fumarate], for which the IC50 was determined as 244 µM at human LAT-1 [1], 3.36 µM in the assay with MIAPaCa-2 cells and 131 µM on human LAT-2. In addition, the “tumor growth inhibitory ratio” value in assay [2] is 85.9%.

Turning to `NCCCCC(Oc1ccc(C(F)(F)F)c(F)c1)c1ccccc1.O=C(O)/C=C/C(=O)O` (stereo not drawn) [Example 72], the “tumor growth inhibitory ratio” value in assay [2] amounted to 84.4%.

For the compound `NCCCCC(Oc1ccc(OC(F)(F)F)cc1)c1ccccc1.O=C(O)/C=C/C(=O)O` (stereo not drawn) [Example 73], the “tumor growth inhibitory ratio” value in assay [2] was determined as 83.6%.
